Reference: PubChem BioAssay AID2060496 (Molecular Pharmacology Branch, DTP, NCI, 2025)
Values joined by “and” are separate entries in the source; they are usually repeats but may differ in a detail not shown here. Equal values may be shown once.

System: 276233-004-R-J1-PDC complex spheroid viability
Experiment: Anticancer human tumor 276233-004-R-J1-PDC patient-derived colon adenocarcinoma cell line growth inhibition [GQUAD]
Settings: for viability, T/C: stronger effect = lower value; active = viability on the fitted dose curve at most 10% of control; inactive = the rest
Text: DNA G-quadruplex Stabilizer Agents in Combinations in Complex Spheroids
A high-throughput screen of multi-cell type tumor spheroids was designed to identify active combinations of DNA G-quadruplex stabilizer agents and targeted small molecules. Complex spheroids include a stromal component modeled by human endothelial cells (HUVEC) and fibroblasts modeled by human mesenchymal stem cells (MSCs). The concentration ranges selected for each drug and investigational agent were based upon clinically achievable concentrations if the clinical Cmax of the agent was known.
Compounds. The drugs and investigational agents: pidnarulex (CX-5461; NSC782164), APTO-253 (NSC789042), BRACO-19 (NSC847499), peposertib (NSC802822), ceralasertib (NSC780249), elimusertib (NSC800525), camonsertib (NSC841442), AZD-1390 (NSC803789), olaparib (NSC753686), talazoparib (NSC767125), ART-558 (NSC835418), sotorasib (NSC818433), MRTX-1133 (NSC836407), SN-38 (NSC673596), topotecan (NSC609699), etoposide (NSC141540), doxorubicin (NSC123127), gemcitabine (NSC613327), 5-fluorouracil (NSC19893), paclitaxel (NSC125973), vemurafenib (NSC761431), panobinostat (NSC761190), R-306465 (JNJ-16241199; NSC773264), adavosertib (NSC754352), TP-3654 (NSC805149), carboplatin (NSC241240), KSQ-4279 (NSC840948), and staurosporine (NSC755774) were obtained from the National Cancer Institute (NCI) Developmental Therapeutics Program Chemical Repository (34). The FDA-approved anticancer drug set is available from the NCI Developmental Therapeutics Program. […] The stock solutions were prepared in dimethyl sulfoxide (DMSO, Sigma-Aldrich, St. Louis, MO, cat. D2650) at 800-fold the tested concentration and stored at -70 degrees C prior to their use. All drugs and investigational agents were tested over a range starting from a high concentration at or near the clinical Cmax and decreasing in half-log increments. If the clinical Cmax for an agent had not been determined, the highest concentration tested was 10 microM.
2.3 Cell Culture. All cells were maintained in an incubator at 37 degrees C and 5% CO2 with 95% humidity. The PDC lines were cultured according to standard operating procedures established by the NCI PDMR. All PDCs were thawed and cultured in Matrigel-coated flasks prepared with a working solution of 1X Ham's F-12 nutrient mix, without supplementation (Invitrogen, cat. 11765054), 100 U/mL penicillin-streptomycin (Invitrogen, cat. 15140122), and 2.5% Matrigel (Corning Inc., cat. 354248) for the first three passages. The 857933-349-R-J2-PDC line was cultured in 6C/Colon 1B media, which includes advanced DMEM/F-12 (Thermo Fisher Scientific, cat. 12634028), 10 mM HEPES (Thermo Fisher Scientific, cat. 15630080), 1X GlutaMAX supplement (Thermo Fisher Scientific, cat. 35050061), 0.1 mg/mL primocin (InvivoGen, cat. ant-pm-2), 10% defined fetal bovine serum, heat inactivated (HyClone Laboratories Inc., cat. SH30070.03HI), 50% L-WRN conditioned media (ATCC, cat. CRL-3276), 1.25 mM N-Acetyl-L-cysteine (Sigma-Aldrich, cat. A9165), 10 mM nicotinamide (Sigma-Aldrich, cat. N0636), 1X B-27 supplement (Thermo Fisher Scientific, cat. 17504044), 1X N-2 supplement (Thermo Fisher Scientific, cat. 17502048), 10 microM Y-27632 dihydrochloride (Tocris Bioscience, cat. 1254), and 50 ng/mL human EGF recombinant protein (Thermo Fisher Scientific, cat. PHG0311). The 485176-168-R4-J1-PDC line was cultured in Panc media, which includes all 6C/Colon 1B media components plus 100 ng/mL human FGF-10 (Thermo Fisher Scientific, cat. 100-26), 500 nM SB-431542 (Selleckchem, cat. S1067), and gastrin (Tocris, cat. 3006).
[…]

[1] = curve of first compound, second compound 0.0316 µM
[2] = curve of first compound, second compound 0.1 µM
[3] = curve of first compound, second compound 0.316 µM
[4] = curve of first compound, second compound 1 µM
[5] = curve of first compound, second compound 3.16 µM
[6] = curve of first compound, second compound 10 µM
[7] = second compound 0.0316 µM, first compound 0.0316 µM
[8] = second compound 0.0316 µM, first compound 0.1 µM
[9] = second compound 0.0316 µM, first compound 0.316 µM
[10] = second compound 0.0316 µM, first compound 1 µM
[11] = second compound 0.0316 µM, first compound 3.16 µM
[12] = second compound 0.0316 µM, first compound 10 µM
[13] = second compound 0.1 µM, first compound 0.0316 µM
[14] = second compound 0.1 µM, first compound 0.1 µM
[15] = second compound 0.1 µM, first compound 0.316 µM
[16] = second compound 0.1 µM, first compound 1 µM
[17] = second compound 0.1 µM, first compound 3.16 µM
[18] = second compound 0.1 µM, first compound 10 µM
[19] = second compound 0.316 µM, first compound 0.0316 µM
[20] = second compound 0.316 µM, first compound 0.1 µM
[21] = second compound 0.316 µM, first compound 0.316 µM
[22] = second compound 0.316 µM, first compound 1 µM
[23] = second compound 0.316 µM, first compound 3.16 µM
[24] = second compound 0.316 µM, first compound 10 µM
[25] = second compound 1 µM, first compound 0.0316 µM
[26] = second compound 1 µM, first compound 0.1 µM
[27] = second compound 1 µM, first compound 0.316 µM
[28] = second compound 1 µM, first compound 1 µM
[29] = second compound 1 µM, first compound 3.16 µM
[30] = second compound 1 µM, first compound 10 µM
[31] = second compound 3.16 µM, first compound 0.0316 µM
[32] = second compound 3.16 µM, first compound 0.1 µM
[33] = second compound 3.16 µM, first compound 0.316 µM
[34] = second compound 3.16 µM, first compound 1 µM
[35] = second compound 3.16 µM, first compound 3.16 µM
[36] = second compound 3.16 µM, first compound 10 µM
[37] = second compound 10 µM, first compound 0.0316 µM
[38] = second compound 10 µM, first compound 0.1 µM
[39] = second compound 10 µM, first compound 0.316 µM
[40] = second compound 10 µM, first compound 1 µM
[41] = second compound 10 µM, first compound 3.16 µM
[42] = second compound 10 µM, first compound 10 µM
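Note: spheroids exposed to drugs for seven days.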

CN(C)c1ccc(Nc2c3ccc(NC(=O)CCN4CCCC4)cc3nc3cc(NC(=O)CCN4CCCC4)ccc23)cc1
> 10 µM and 4.02 µM and 5.57 µM: IC50 (compound alone, run of 02/26/2024)
inactive: viability, T/C (compound 0.316 µM) 65% [middle of 12 runs] | viability, T/C (compound 1 µM) 64.4% [middle of 12 runs] | viability, T/C (compound 3.16 µM) 61.7% [middle of 12 runs] | viability, T/C (compound 10 µM) 49.8% [middle of 12 runs]

CC(C)n1c(=O)n(C)c2cnc3cc(F)c(-c4ccc(OCCCN5CCCCC5)nc4)cc3c21
inactive: viability, T/C (compound 0.0316 µM) 91.9% and 80.4% and 93.2% | viability, T/C (compound 0.1 µM) 86.8% and 101% and 78.8% | viability, T/C (compound 0.316 µM) 107% and 86.6% and 73.3% | viability, T/C (compound 1 µM) 99.4% and 85.9% and 73.2% | viability, T/C (compound 3.16 µM) 108% and 84.9% and 95.3% | viability, T/C (compound 10 µM) 86.9% and 68.8% and 77%
> 10 µM: IC50 (curve of compound)

COc1cc(C2c3cc4c(cc3C(OC3OC5COC(C)OC5C(O)C3O)C3COC(=O)C23)OCO4)cc(OC)c1O (centres undefined)
> 10 µM: IC50 (curve of compound)
inactive: viability, T/C (compound 0.0316 µM) 94.5% and 86% and 83.5% | viability, T/C (compound 0.1 µM) 85% and 92% and 84.5% | viability, T/C (compound 0.316 µM) 88% and 89.3% and 89.8% | viability, T/C (compound 1 µM) 81.9% and 83.7% and 91% | viability, T/C (compound 3.16 µM) 99% and 101% and 88.6% | viability, T/C (compound 10 µM) 92.4% and 79.9% and 85%

CCCS(=O)(=O)Nc1ccc(F)c(C(=O)c2c[nH]c3ncc(-c4ccc(Cl)cc4)cc23)c1F
> 10 µM: IC50 (curve of compound)
inactive: viability, T/C (compound 0.0316 µM) 85% and 77.1% and 99.3% | viability, T/C (compound 0.1 µM) 91.3% and 96.2% and 84.7% | viability, T/C (compound 0.316 µM) 85.8% and 98.6% and 111% | viability, T/C (compound 1 µM) 97.5% and 83.7% and 96.3% | viability, T/C (compound 3.16 µM) 79.2% and 91% and 121% | viability, T/C (compound 10 µM) 56.8% and 59.4% and 76.4%

C=CC(=O)N1CCN(c2nc(=O)n(-c3c(C)ccnc3C(C)C)c3nc(-c4c(O)cccc4F)c(F)cc23)C(C)C1 (centres undefined)
inactive: viability, T/C (compound 0.0316 µM) 107% and 92.8% and 91.6% | viability, T/C (compound 0.1 µM) 89.2% and 119% and 77.8% | viability, T/C (compound 0.316 µM) 102% and 80.8% and 89% | viability, T/C (compound 1 µM) 96.7% and 101% and 87.3% | viability, T/C (compound 3.16 µM) 98.4% and 92.5% and 85.8% | viability, T/C (compound 10 µM) 91.2% and 93.1% and 84.2%
> 10 µM: IC50 (curve of compound)

C=CC(=O)N1CCN(c2nc(=O)n(-c3c(C)ccnc3C(C)C)c3nc(-c4c(O)cccc4F)c(F)cc23)C(C)C1 (centres undefined) + CN(C)c1ccc(Nc2c3ccc(NC(=O)CCN4CCCC4)cc3nc3cc(NC(=O)CCN4CCCC4)ccc23)cc1
< 0.0316 µM: IC50 [5]
inactive: viability, T/C [7] 93.1% | viability, T/C [8] 90.4% | viability, T/C [9] 106% | viability, T/C [10] 97.6% | viability, T/C [11] 102% | viability, T/C [12] 87.6% | viability, T/C [13] 90% | viability, T/C [14] 75.8% | viability, T/C [15] 80.6% | viability, T/C [16] 73.9% | viability, T/C [17] 77% | viability, T/C [18] 75.2% | viability, T/C [19] 67.9% | viability, T/C [20] 82.1% | viability, T/C [21] 68.6% | viability, T/C [22] 58.5% | viability, T/C [23] 71% | viability, T/C [24] 68.9% | viability, T/C [25] 55.4% | viability, T/C [26] 47.8% | viability, T/C [27] 62.2% | viability, T/C [28] 56.6% | viability, T/C [29] 59.1% | viability, T/C [30] 63.6% | viability, T/C [31] 48.2% | viability, T/C [32] 52.1% | viability, T/C [33] 42.3% | viability, T/C [34] 44.6% | viability, T/C [35] 55.8% | viability, T/C [36] 45.3% | viability, T/C [37] 50.6% | viability, T/C [38] 55.1% | viability, T/C [39] 43.5% | viability, T/C [40] 53.5% | viability, T/C [41] 62.6% | viability, T/C [42] 47.8%
> 10 µM: IC50 [1] | IC50 [2] | IC50 [3] | IC50 [4] | IC50 [6]

Cc1[nH]c2ccccc2c1CCNCc1ccc(/C=C/C(=O)NO)cc1
inactive: viability, T/C (compound 0.000999 µM) 86.2% and 100% and 95.1% | viability, T/C (compound 0.00316 µM) 71% and 96.2% and 83.8% | viability, T/C (compound 0.00999 µM) 96.1% and 81.2% and 98.1% | viability, T/C (compound 0.0316 µM) 80.3% and 84% and 82.8% | viability, T/C (compound 0.0999 µM) 80.9% and 60.8% and 86.1% | viability, T/C (compound 0.316 µM) 19.3% and 31.7% and 41.9%
0.178 µM and 0.155 µM and 0.257 µM: IC50 (curve of compound)

COc1cccc2c1C(=O)c1c(O)c3c(c(O)c1C2=O)CC(O)(C(=O)CO)CC3OC1CC(N)C(O)C(C)O1 (centres undefined) + Cc1[nH]c2ccc(F)cc2c1-c1nc2c3cccnc3c3ncccc3c2[nH]1
2.48 µM: IC50 [1]
3.27 µM: IC50 [3]
0.415 µM: IC50 [5]
inactive: viability, T/C [7] 79.4% | viability, T/C [8] 79.9% | viability, T/C [9] 108% | viability, T/C [10] 64.9% | viability, T/C [11] 53% | viability, T/C [12] 39% | viability, T/C [13] 82.6% | viability, T/C [14] 96.3% | viability, T/C [15] 75.3% | viability, T/C [16] 89.1% | viability, T/C [17] 54.2% | viability, T/C [18] 40.9% | viability, T/C [19] 82.6% | viability, T/C [20] 82.6% | viability, T/C [21] 81.3% | viability, T/C [22] 77.2% | viability, T/C [23] 50.5% | viability, T/C [24] 34.2% | viability, T/C [25] 57.2% | viability, T/C [26] 78.3% | viability, T/C [27] 70.1% | viability, T/C [28] 70.9% | viability, T/C [29] 52.1% | viability, T/C [30] 33.8% | viability, T/C [31] 50.7% | viability, T/C [32] 63.5% | viability, T/C [33] 52.3% | viability, T/C [34] 41.4% | viability, T/C [35] 43.3% | viability, T/C [36] 35.7% | viability, T/C [37] 50% | viability, T/C [38] 44.4% | viability, T/C [39] 49.1% | viability, T/C [40] 47.6% | viability, T/C [41] 39.7% | viability, T/C [42] 27.6%
< 0.0316 µM: IC50 [6]
4.57 µM: IC50 [2]
3.6 µM: IC50 [4]
